Assay results as given in US5612363A, “N,N-di(aryl) cyclic urea derivatives as anti-coagulants” (Berlex Laboratories, Inc., priority 1995, dated 1997).
Residues, ends and D or L forms follow the SMILES beside them.

Tests used:
Human thrombin = molecular target: T1, Human thrombin (Homo sapiens, UniProt P00734); experiment: In vitro chromogenic assay for thrombin (S2302 cleavage); type: biochemical; conditions: assay buffer pH 7.5, ambient temperature; read-out: Km (substrate concentration equal to Km)
T1 construct: Human thrombin stock solution; purchased Enzyme Research Lab
Protocol: (§1) The activities were determined as an initial rate of cleavage of the peptide p-nitroanilide by the enzyme. The cleavage product, p-nitroaniline, absorbs at 405 nm with a molar extinction coefficient of 9920M^-1 cm^-1.
(§2) 50 mM TrisHCl, 150 mM NaCl, 2.5 mM CaCl2, and 0.1% polyethylene glycol 6000, pH 7.5.
2. Human thrombin stock solution: Stored at -80° C. (working solution (2×): 1200 ng/mL or 40 nM in assay buffer, prepare prior to use).
1. S2222 (FXa assay) stock solution: 6 mM in dH2 O, store at 4° C. (working solution (4×): 656 μM in assay buffer). p1 2. S2302 (Thrombin assay) stock solution: 10 mM in dH2 O, stored at 4° C. (working solution (4×): 1200 μM in assay buffer).
Assays were performed in 96-well microtiter plates in a total volume of 200 μl. […] Concentrations of the standard inhibitor compound in the assay were from 5 μM to 0.021 μM in 1 to 3 dilution. Concentration of the test compounds in the assay typically were from 10 μM to 0.041 μM in 1 to 3 dilution. […]
(§3) The enzyme kinetics were measured at 405 nm, at 10 seconds interval, for five minutes in a THERMOmax plate reader at ambient temperature.
Enzyme rates were calculated as mOD/min based on the first two minutes readings. The IC50 values were determined by fitting the data to the log-logit equation (linear) or the Morrison equation (non-linear) with an EXCEL spread-sheet. […]

[1] = molecular target: T2, Human tissue plasminogen activator (tPA) (Two chains, Sigma) (Homo sapiens, UniProt P00750); experiment: In vitro chromogenic assay for tissue plasminogen activator (S2288 cleavage); type: biochemical; conditions: assay buffer pH 7.5, ambient temperature; read-out: Km (substrate concentration equal to Km)
T2 construct: (tPA) (Two chains, Sigma); purchased Sigma
T2 sequence (P00750 311-562 limits assumed): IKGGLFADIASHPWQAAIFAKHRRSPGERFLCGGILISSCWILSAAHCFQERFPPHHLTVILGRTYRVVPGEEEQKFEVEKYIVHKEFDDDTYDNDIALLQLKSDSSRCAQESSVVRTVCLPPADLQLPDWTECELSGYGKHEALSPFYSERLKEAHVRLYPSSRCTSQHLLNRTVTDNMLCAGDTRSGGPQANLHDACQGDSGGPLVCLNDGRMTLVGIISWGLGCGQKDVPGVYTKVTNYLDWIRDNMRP
T2 sequence (P00750 36-310 partner limits assumed): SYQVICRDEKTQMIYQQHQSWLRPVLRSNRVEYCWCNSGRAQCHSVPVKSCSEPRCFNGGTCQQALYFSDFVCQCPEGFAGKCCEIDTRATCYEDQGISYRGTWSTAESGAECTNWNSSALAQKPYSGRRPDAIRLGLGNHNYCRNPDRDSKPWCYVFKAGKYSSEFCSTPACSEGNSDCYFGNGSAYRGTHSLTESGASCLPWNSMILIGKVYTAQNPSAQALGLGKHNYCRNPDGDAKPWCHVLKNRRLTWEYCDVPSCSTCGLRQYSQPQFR
Protocol: as §1, §2
3. Human tissue plasminogen activator (tPA) (Two chains, Sigma) stock solution: 1 mg/mL, stored at -80° C. (working solution (2×): 1361 ng/mL in assay buffer, prepare prior to use).
3. S2288 (tPA assay) stock solution: 10 mM in dH2 O, stored at 4° C. (working solution (4×): 1484 μM in assay buffer). (All substrate working solutions were prepared on assay […].)
Assays were performed in 96-well microtiter plates in a total volume of 200 μl. […] Concentrations of the standard inhibitor compound in the assay were from 5 μM to 0.021 μM in 1 to 3 dilution. Concentration of the test compounds in the assay typically were from 10 μM to 0.041 μM in 1 to 3 dilution. For potent test compounds, the concentrations used in the factor Xa assay were further diluted 100 fold (100 nM to 0.41 nM) or 1000 fold (10 nM to 0.041 nM). All substrate concentrations used are equal to their Km values under the present assay conditions. Assays were performed at ambient temperature. […]
as §3

SMILES | Km (Human thrombin) [µM] | Km [1] [µM]
N=C(N)NCCC[C@H](NC(=O)[C@H](Cc1ccccc1)NC(=O)[C@H]1CCCN1)C(=O)Nc1ccc([N+](=O)[O-])cc1 [Example S2302] (HELM PEPTIDE1{[dP].F.R.[O=[N+]([O-])c1ccc(N[*:1])cc1]}$$$$V2.0) | 300 | 
CC[C@@H](C)[C@@H](N)C(=O)N1CCC[C@H]1C(=O)N[C@@H](CCCN=C(N)N)C(=O)Nc1ccc([N+](=O)[O-])cc1 [Example S2288] (HELM PEPTIDE1{[dI].P.R.[O=[N+]([O-])c1ccc(N[*:1])cc1]}$$$$V2.0) |  | 371
